Assays:
P2X7 receptor = biological target: T1, P2X7 receptor (Homo sapiens, UniProt Q99572); assay: IL-1β release assay in differentiated THP-1 cells (Example 9); format: cell-based; details: THP-1 cells differentiated with LPS and IFN-γ; 30 min pretreatment; BzATP 250 uM; IL-1β by ELISA
T1 construct: host or cells: THP-1 cells differentiated with LPS and IFN-γ
T1 sequence (Q99572 1-595): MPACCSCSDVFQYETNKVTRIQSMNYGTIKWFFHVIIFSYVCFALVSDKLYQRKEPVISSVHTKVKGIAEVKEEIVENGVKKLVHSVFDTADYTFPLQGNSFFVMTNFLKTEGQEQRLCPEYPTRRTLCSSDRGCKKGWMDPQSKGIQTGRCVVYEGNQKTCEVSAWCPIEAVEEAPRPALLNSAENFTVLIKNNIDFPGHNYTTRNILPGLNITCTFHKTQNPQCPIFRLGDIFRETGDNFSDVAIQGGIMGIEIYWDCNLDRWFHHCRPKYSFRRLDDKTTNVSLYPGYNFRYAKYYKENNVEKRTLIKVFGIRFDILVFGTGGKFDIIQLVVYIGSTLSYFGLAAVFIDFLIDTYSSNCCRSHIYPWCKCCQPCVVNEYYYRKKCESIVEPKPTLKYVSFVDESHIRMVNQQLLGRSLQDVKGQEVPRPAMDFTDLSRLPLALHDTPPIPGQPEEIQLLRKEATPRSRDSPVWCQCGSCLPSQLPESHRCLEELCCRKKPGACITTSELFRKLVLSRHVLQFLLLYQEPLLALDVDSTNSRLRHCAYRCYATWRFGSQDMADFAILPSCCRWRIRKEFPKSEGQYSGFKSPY
Description: THP-1 cells (ATCC Cat #285-IF-100) are plated in 96 well plates at a concentration of 200,000 cells per well and allowed to differentiate in RPMI-1640 media (ATCC Cat #30-2001) containing 10% FBS, 100 IU/mL penicillin, 100 ug/mL streptomycin, 100 ng/mL LPS and 100 ng/mL IFN-γ for 16 hours. Following differentiation, the cells are treated for an additional 2 hours in RPMI-1640 media containing 100 IU/mL penicillin, 100 ug/mL streptomycin and fresh LPS at 100 ng/mL. The cells are then pretreated for 30 minutes with the compound of interest at the appropriate concentration in RPMI media containing 100 IU/mL penicillin, 100 ug/mL streptomycin. Following the pretreatment 2′,3′-O-(4-benzoylbenzoyl)-adenosine 5′-triphosphate (Sigma Aldrich Cat # B6396) is added to a final concentration of 250 uM, and the cells are incubated for an additional 45 minutes. 30 uL of cell supernatant is then collected and IL-1β levels are determined via ELISA (R&D systems Cat. # HSLB50) according to manufacturer's recommendations using a Tecan Safire plate reader. Background adjusted IL-1β levels of drug treated and non-treated cells are used to calculate the percent inhibition.
The following compounds have been or can be prepared according to the synthetic methods described herein for example, methods A-AA1. The compounds set forth in Table 1 were tested for activity in a cellular model as described herein. Specifically, cells were pretreated with differing amounts of the compound under test and released IL-1β determined as in Example 9, above. Measurements were made and IC50 values, presented in Table 1, below, were determined by fitting the data to a four parameter logistic equation using GraphPad Prism software (GraphPad Software, Inc). The equation may be expressed by the following formula: Y=Bottom+(Top−Bottom)/(1+10^((Log EC50−X)*HillSlope)) where X is the logarithm of concentration, Y is the response and Y starts at Bottom and goes to Top with a sigmoid shape.

[1] = Half-life in human liver microsomes (HLM); format: in vitro ADME; details: human liver microsomes 0.78 mg/mL, 1 μM compound, NADPH, 37° C.; for half-life at 1 μM: pH 7.4
Description: Half-Life in Human Liver Microsomes (HLM)
Test compounds (1 μM) are incubated with 3.3 mM MgCl2 and 0.78 mg/mL HLM (HL101) in 100 mM potassium phosphate buffer (pH 7.4) at 37° C. on the 96-deep well plate. The reaction mixture is split into two groups, a non-P450 and a P450 group. NADPH is only added to the reaction mixture of the P450 group. An aliquot of samples of P450 group is collected at 0, 10, 30, and 60 min time point, where 0 min time point indicated the time when NADPH is added into the reaction mixture of P450 group. […] Collected aliquots are extracted with acetonitrile solution containing an internal standard. […] The compound concentration in supernatant is measured by LC/MS/MS system.
The half-life value is obtained by plotting the natural logarithm of the peak area ratio of compounds/internal standard versus time. The slope of the line of best fit through the points yields the rate of metabolism (k). This is converted to a half-life value using following equations: Half-life=ln 2/k

[2] = Plasma protein binding by equilibrium dialysis, human plasma; format: in vitro ADME; details: pH 7.4, equilibrium dialysis 16 hr at 37° C., % Bound
Description: The plasma protein binding of compounds of invention is measured in human and rat plasma, respectively. A stock solution of the tested compound is prepared in 1 mg/mL in DMSO solution. The stock solution is spiked into the blank plasma to get a final compound concentration at 1 μg/mL for testing. Equilibrium dialysis (The equilibrium dialyzer-96TM MWCO 5K Daltons, Harvard Apparatus) method is used for the testing purpose.
The compound spiked plasma (at […]) and phosphate buffer (0.1 M, pH 7.4), 200 μl each, are added into the opposite sides of the membrane in a 96-well equilibrium dialyzer, respectively. The dialyzer plate is covered and incubated overnight (16 hr) at 37° C. in the 8-plate rotor incubator (Big Shot III 8-plate rotor, Harvard Apparatus). Aliquots (100 μL) are taken from the plasma and the buffer compartments, respectively. The matrix effects are eliminated by adding the same volume of blank plasma into the samples from buffer compartments and adding the same volume of phosphate buffer into the samples from plasma compartments. The samples are extracted by using the regular (3:1) protein precipitation extraction procedure (acetonitrile with internal standard). The supernatants are taken for LC/MS/MS analysis. The percentage of plasma-protein binding can be calculated by using the following method: % Free=[Free Drug/Total Drug]*100=[(Peak Area)buffer/(Peak Area)plasma]*100 % Bound=100−% Free.
For the purpose of Table 4, the plasma protein binding of each compound is expressed as follows: […]

IC50 (P2X7 receptor) | half-life at 1 μM [1] | fraction unbound at 16 hr, 1 μg/mL [2] | Half Life [1] | SMILES
7 nM | 3 h | < 0.1 |  | C[C@H](CO)n1ccc2c(C(=O)NCc3ccc(C(F)(F)F)c(F)c3)c(Cl)ccc2c1=O [Compound 41, 6-Chloro-2-((R)-2-hydroxy-1-methyl-ethyl)-1-oxo-1,2-dihydro-isoquinoline-5-carboxylic acid 3-fluoro-4-trifluoromethyl-benzylamide]
7 nM | 0.8 h | < 0.1 |  | Cc1ccc2c(=O)n([C@H](C)CO)ccc2c1C(=O)NCc1cccc(C(F)(F)F)c1 [Compound 42, 2-((R)-2-Hydroxy-1-methyl-ethyl)-6-methyl-1-oxo-1,2-dihydro-isoquinoline-5-carboxylic acid 3-trifluoromethyl-benzylamide]
3 nM | 2.6 h | 0.1 to 0.24 |  | Cc1ccc2c(=O)n([C@H](C)CO)ccc2c1C(=O)NCc1ccc(C(F)(F)F)c(F)c1 [Compound 40, 2-((R)-2-Hydroxy-1-methyl-ethyl)-6-methyl-1-oxo-1,2-dihydro-isoquinoline-5-carboxylic acid 3-fluoro-4-trifluoromethyl-benzylamide]
3 nM | 0.65 h | 0.25 to 0.49 |  | C[C@H](CO)n1ccc2c(C(=O)NCC3(O)CCC(F)(F)CC3)c(Cl)ccc2c1=O [Compound 68]
0.3 nM | 0.62 h | 0.25 to 0.49 |  | C[C@H](CO)n1ccc2c(C(=O)NCC3(O)CCC4(CC3)CC4(F)F)c(Cl)ccc2c1=O (stereo partly drawn) [Compound 65]
9 nM |  | < 0.1 | 3.7 h | Cc1ccc2c(=O)n(CCO)ccc2c1NC(=O)Cc1ccc(C(F)(F)F)c(F)c1 [Compound 28, 2-(3-Fluoro-4-trifluoromethyl-phenyl)-N-[2-(2-hydroxy-ethyl)-6-methyl-1-oxo-1,2-dihydro-isoquinolin-5-yl]-acetamide]
11 nM | 1.4 h | < 0.1 |  | Cc1ccc2c(=O)n([C@H](C)CO)ccc2c1NC(=O)Cc1cccc(C(F)(F)F)c1F [Compound 23, 2-(2-Fluoro-3-trifluoromethyl-phenyl)-N-[2-((R)-2-hydroxy-1-methyl-ethyl)-6-methyl-1-oxo-1,2-dihydro-isoquinolin-5-yl]-acetamide]
6 nM | 4.6 h | 0.1 to 0.24 |  | Cc1ccc2c(=O)n([C@H](C)CO)ccc2c1NC(=O)Cc1ccc(C(F)(F)F)cc1 [Compound 25, N-[2-((R)-2-Hydroxy-1-methyl-ethyl)-6-methyl-1-oxo-1,2-dihydro-isoquinolin-5-yl]-2-(4-trifluoromethyl-phenyl)-acetamide]
0.4 nM |  | < 0.1 | 1.0 h | C[C@H](CO)n1ccc2c(NC(=O)Cc3ccc(F)c(C(F)(F)F)c3)c(Cl)ccc2c1=O [Compound 13, N-[6-Chloro-2-((R)-2-hydroxy-1-methyl-ethyl)-1-oxo-1,2-dihydro-isoquinolin-5-yl]-2-(4-fluoro-3-trifluoromethyl-phenyl)-acetamide]

SMILES | IC50 (P2X7 receptor) | half-life at 1 μM [1] | fraction unbound at 16 hr, 1 μg/mL [2] | Half Life [1]
Cc1ccc2c(=O)n([C@H](C)CO)ccc2c1NC(=O)Cc1ccc(C(F)(F)F)c(F)c1 [Compound 21, N-[6-Methyl-2-((R)-2-hydroxy-1-methyl-ethyl)-1-oxo-1,2-dihydro-isoquinolin-5-yl]-2-(3-fluoro-4-trifluoromethyl-phenyl)-acetamide] | 0.4 nM |  | < 0.1 | 1.5 h

Reference: patent US8093265B2, “Bicycloheteroaryl compounds as P2X7 modulators and uses thereof” (Renovis, Inc., priority 2007, dated 2012)
